US12030877B2, “Prostaglandin E synthase inhibitors and methods for utilizing the same” (University of Kentucky Research Foundation, priority 2016, dated 2024)

Molecular target: T1, mPGES-1 (Homo sapiens, UniProt O14684)
T1 sequence (O14684 1-152): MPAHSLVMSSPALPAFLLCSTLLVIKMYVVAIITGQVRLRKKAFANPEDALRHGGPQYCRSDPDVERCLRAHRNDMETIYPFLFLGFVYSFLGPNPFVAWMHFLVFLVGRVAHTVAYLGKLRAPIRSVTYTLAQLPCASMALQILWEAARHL
Test: mPGES-1 enzyme activity assay (PGE2 enzyme immunoassay), human enzyme
Type: biochemical
Parameters: made in house; host or cells: FreeStyle 293-F cells, crude microsomal preparation
Conditions: IC50 against mPGES-1, Human enzyme, recombinant microsomal enzyme; means ± SD, triplicate
Experimental: (§1) Studies were conducted to characterize the inhibitory activity against recombinant mPGES-1 of the compounds synthesized in accordance with Examples 1-4, and disclosed herein.
(§2) Briefly, FreeStyle 293-F cells were cultured following manufacturer's manual in FreeStyle 293 expression medium on orbit rotate shaker in 8% CO2 incubator at 37° C. Cells were transfected with 1.5 μg/mL of mPGES-1/pcDNA3 construct using FreeStyle Max reagent at a cell density of 1×10^6 for 2 days. Transfected cells were collected, washed, and sonicated in TSES buffer (15 mM Tris-HCl, pH 8.0 plus 0.25 M sucrose, 0.1 mM EDTA and 1 mM DTT) on ice. The broken cells were first centrifuged at 12,500×g for 10 min. The supernatant was further centrifuged at 105,000×g for 1 hr at 4° C. The pellet was washed and homogenized in PBS buffer. The crude microsomal mPGES-1 preparation was aliquoted and stored at −80° C. The crude protein concentration was 8 mg/mL.
(§3) The enzyme activity assays were performed on ice in 1.5 ml microfuge tubes by using the expressed mPGES-1. The reaction mixture contained: 0.2 M Na2HPO4/NaH2PO4, pH 7.2, 10 μL; 0.1 M GSH, 2.5 μL; diluted microsomal enzyme (80 μg/mL), 1 μL; PGH2 (0.31 mM in DMF), 5 μL; 1 μL inhibitor; and H2O in a final reaction volume of 100 μL. PGH2 was stored in dry ice and used to initiate the reaction.
(§4) Compounds were incubated with the enzyme for 15 min at room temperature before the addition of cold PGH2 (1 μM final) to initiate the enzyme reaction. After 30 s, 10 μL of SnCl2 (40 mg/mL) in ethanol was added to stop the reaction. The nonenzymatic conversion of PGH2 to PGE2 was performed in the same buffer devoid of enzyme. The reaction mixture was placed on ice until PGE2 production was determined by the PGE2 enzyme immunoassay as described earlier. IC50 values of the inhibitors were calculated by using the GraphPad Prism 4.0 program. The results are set forth in the tables provided in Examples 7-10.

Structure (SMILES)	IC50
O=C1NC(=O)C(=Cc2ccc(OCCCCC3CCCCC3)c(Br)c2)C(=O)N1 [Compound I-03]	45 ± 8 nM
Cc1cc(C=C2C(=O)NC(=O)NC2=O)ccc1OCCCCC1CCCCC1 [Compound I-04]	82 ± 10 nM
O=C1NC(=O)C(=Cc2ccc(OCCCCC3CCCCC3)c(O)c2)C(=O)N1 [Compound I-05]	116 ± 17 nM
COc1cc(C=C2C(=O)NC(=O)NC2=O)ccc1OCCCCC1CCCCC1 [Compound I-06]	121 ± 20 nM
O=C1NC(=O)C(=Cc2ccc(OCCCCC3CCCCC3)c([N+](=O)[O-])c2)C(=O)N1 [Compound I-08]	67 ± 20 nM
O=C1NC(=O)C(=Cc2ccc(OCCCCC3CCCCC3)c(Br)c2)C(=O)N1 [Compound I-22]	20 ± 4 nM
O=C1NC(=O)C(=Cc2ccc(OCCCCC3CCCCC3)c([N+](=O)[O-])c2)C(=O)N1 [Compound I-23]	53 ± 14 nM
O=C1NC(=O)C(=Cc2ccc(OCCCC3CCCCC3)c(Cl)c2)C(=O)N1 [Compound I-24]	110 ± 21 nM
O=C1NC(=O)C(=Cc2ccc(OCCCC3CCCCC3)c(Br)c2)C(=O)N1 [Compound I-25]	104 ± 25 nM
O=C1NC(=O)C(=Cc2ccc(OCCCC3CCCCC3)c(Cl)c2)C(=O)N1 [Compound I-30]	78 ± 13 nM
O=C1NC(=O)C(=Cc2ccc(OCCCC3CCCCC3)c(Br)c2)C(=O)N1 [Compound I-31]	112 ± 13 nM

Same assay, conditions: compound at a concentration of 10 μM; read-out: % inhibition of the compound against mPGES-1, Human enzyme

Structure (SMILES)	inhibition at 10 µM
CCCCOc1ccc(-c2nn(-c3ccccc3)cc2C=C2C(=O)N(C)C(=O)N(C)C2=O)cc1 [VI-19]	30%
CCCCOc1ccc(-c2nn(-c3ccc(Cl)cc3)cc2C=C2C(=O)N(C)C(=O)N(C)C2=O)cc1 [VI-20]	29%
CCCCCCCCOc1ccc(-c2nn(-c3ccccc3)cc2C=C2C(=O)N(C)C(=O)N(C)C2=O)cc1 [VI-21]	16%
CCCCCCCCOc1ccc(-c2nn(-c3ccc(Cl)cc3)cc2C=C2C(=O)N(C)C(=O)N(C)C2=O)cc1 [VI-22]	6.8%
CCCCCCCCCCOc1ccc(-c2nn(-c3ccccc3)cc2C=C2C(=O)N(C)C(=O)N(C)C2=O)cc1 [VI-23]	0%
CCCCCCCCCCOc1ccc(-c2nn(-c3ccc(Cl)cc3)cc2C=C2C(=O)N(C)C(=O)N(C)C2=O)cc1 [VI-24]	0%
CCOC(=O)/C(C#N)=C\c1cn(-c2ccc(Cl)cc2)nc1-c1ccc(OCC)cc1 [VII-03]	24%
CCCCCCOc1ccc(-c2nn(-c3ccc(Cl)cc3)cc2/C=C(/C#N)C(=O)OCC)cc1 [VII-04]	37%
CCCCOc1ccc(-c2nn(-c3ccccc3)cc2C=C(C#N)C#N)cc1 [VII-22]	54%
CCCCOc1ccc(-c2nn(-c3ccc(Cl)cc3)cc2C=C(C#N)C#N)cc1 [VII-23]	77%
CCCCCCCCOc1ccc(-c2nn(-c3ccccc3)cc2C=C(C#N)C#N)cc1 [VII-25]	55%
CCCCCCCCOc1ccc(-c2nn(-c3ccc(Cl)cc3)cc2C=C(C#N)C#N)cc1 [VII-26]	52%
CCCCCCCCCCOc1ccc(-c2nn(-c3ccccc3)cc2C=C(C#N)C#N)cc1 [VII-27]	49%
CCCCCCCCCCOc1ccc(-c2nn(-c3ccc(Cl)cc3)cc2C=C(C#N)C#N)cc1 [VII-28]	47%

Same assay, conditions: recombinant microsomal enzyme; means ± SD, triplicate; read-out: IC50 against mPGES-1, Human enzyme

Structure (SMILES)	IC50
O=C1NC(=O)C(=Cc2ccc(OCCCCC3CCCCC3)cc2)C(=O)N1 [Compound I-01]	622 ± 121 nM
O=C1NC(=O)C(=Cc2ccc(OCCCCC3CCCCC3)c(Cl)c2)C(=O)N1 [Compound I-02]	33 ± 3 nM
CCCCCCOc1ccc(/C=C(\C#N)C(=O)OCC)cc1[N+](=O)[O-] [Compound V-01]	8740 ± 1170 nM
CCCCCCCOc1ccc(/C=C(\C#N)C(=O)OCC)cc1[N+](=O)[O-] [Compound V-02]	4820 ± 511 nM
CCCCCCCCOc1ccc(/C=C(\C#N)C(=O)OCC)cc1[N+](=O)[O-] [Compound V-03]	4750 ± 489 nM
CCCCCOc1ccc(/C=C(\C#N)C(=O)OCC)cc1 [Compound V-07]	6220 ± 502 nM
CCCCCCOc1ccc(/C=C(\C#N)C(=O)OCC)cc1 [Compound V-08]	5240 ± 429 nM
CCCCCCCOc1ccc(/C=C(\C#N)C(=O)OCC)cc1 [Compound V-09]	3520 ± 471 nM
CCCCCCCOc1ccc(/C=C(\C#N)C(N)=O)cc1 [Compound V-11]	376 ± 31 nM
CCCCCCOc1c(Br)cc(/C=C(\C#N)C(=O)OCC)cc1OC [Compound V-12]	998 ± 196 nM
CCCCCCCOc1c(Br)cc(/C=C(\C#N)C(=O)OCC)cc1OC [Compound V-14]	1010 ± 262 nM
CCCCCCCOc1c(Br)cc(/C=C(\C#N)C(N)=O)cc1OC [Compound V-16]	1300 ± 232 nM
CCCCCCCCOc1c(Br)cc(/C=C(\C#N)C(=O)OCC)cc1OC [Compound V-17]	1870 ± 350 nM
CCCCCCCCCCCCCCCCCCOc1c(Br)cc(/C=C(\C#N)C(=O)OCC)cc1OC [Compound V-19]	2270 ± 350 nM
CCCCOc1ccc(/C=C(\C#N)C(=O)OCC)cc1OC [Compound V-21]	5630 ± 987 nM
CCCCCCOc1ccc(/C=C(\C#N)C(=O)OCC)cc1OC [Compound V-23]	1450 ± 192 nM
CCCCCCOc1ccc(C=C(C#N)C#N)cc1OC [Compound V-24]	294 ± 60 nM
CCCCCCOc1ccc(/C=C(\C#N)C(=O)O)cc1OC [Compound V-25]	242 ± 30 nM
CCCCCCCCCCOc1ccc(/C=C(\C#N)C(=O)OCC)cc1OC [Compound V-26]	905 ± 177 nM
CCCCCCCCCCOc1ccc(/C=C(\C#N)C(N)=O)cc1OC [Compound V-28]	4370 ± 915 nM

Structure (SMILES)	IC50
CCCCCCCCCOc1ccc(/C=C(\C#N)C(=O)OCC)cc1OC [Compound V-29]	2880 ± 687 nM
CCCCCCCCCOc1ccc(/C=C(\C#N)C(N)=O)cc1OC [Compound V-30]	1100 ± 212 nM
CCCCCCCCCOc1ccc(/C=C(\C#N)C(=O)O)cc1OC [Compound V-31]	356 ± 123 nM
CCCCCCCOc1ccc(/C=C(\C#N)C(=O)OCC)cc1OC [Compound V-32]	4280 ± 1400 nM
CCCCCCCOc1ccc(/C=C(\C#N)C(N)=O)cc1OC [Compound V-33]	2210 ± 450 nM
CCCCCCCOc1ccc(/C=C(\C#N)C(=O)O)cc1OC [Compound V-34]	531 ± 116 nM
CCCCOc1ccc(/C=C(\C#N)C(=O)O)cc1OC [Compound V-36]	541 ± 82 nM
CCCCOc1ccc(/C=C(\C#N)C(N)=O)cc1OC [Compound V-37]	5410 ± 818 nM
CCOC(=O)/C(C#N)=C/c1ccc(OCC2CCCCC2)c(OC)c1 [Compound V-38]	10800 ± 1040 nM
COc1cc(C=C(C#N)C#N)ccc1OCC1CCCCC1 [Compound V-39]	1450 ± 152 nM
COc1cc(/C=C(\C#N)C(N)=O)ccc1OCC1CCCCC1 [Compound V-40]	1460 ± 119 nM
CCCCCOc1ccc(/C=C(\C#N)C(=O)OCC)cc1OC [Compound V-41]	4140 ± 858 nM
CCCCCOc1ccc(C=C(C#N)C#N)cc1OC [Compound V-42]	439 ± 104 nM
CCCCCOc1ccc(/C=C/[N+](=O)[O-])cc1OC [Compound V-43]	2770 ± 577 nM
CCCCCOc1ccc(/C=C(\C#N)C(=O)O)cc1OC [Compound V-44]	456 ± 42 nM
CCOc1ccc(-c2nn(-c3ccc(Cl)cc3)cc2/C=C2\SC(=O)NC2=O)cc1 [VII-05]	1590 ± 557 nM
CCCCCCOc1ccc(-c2nn(-c3ccc(Cl)cc3)cc2/C=C2\SC(=O)NC2=O)cc1 [VII-06]	1390 ± 303 nM
O=C1NC(=O)/C(=C/c2cn(-c3ccccc3)nc2-c2ccccc2)S1 [VII-07]	4930 ± 1160 nM
CCOc1ccc(-c2nn(-c3ccc(Cl)cc3)cc2/C=C2\SC(=S)NC2=O)cc1 [VII-08]	1040 ± 293 nM
CCCCCCOc1ccc(-c2nn(-c3ccc(Cl)cc3)cc2/C=C2\SC(=S)NC2=O)cc1 [VII-09]	1730 ± 666 nM

Molecular target: T2, mPGES-1 Mouse enzyme (Mus musculus, UniProt Q9JM51)
T2 construct: made in house; host or cells: FreeStyle 293-F cells, crude microsomal preparation
T2 sequence (Q9JM51 1-153): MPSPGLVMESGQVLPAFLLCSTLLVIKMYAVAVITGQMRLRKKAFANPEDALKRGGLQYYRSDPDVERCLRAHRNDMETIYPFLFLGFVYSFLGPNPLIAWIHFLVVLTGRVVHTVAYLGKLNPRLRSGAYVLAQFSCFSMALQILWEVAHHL
Test: mPGES-1 enzyme activity assay (PGE2 enzyme immunoassay), mouse enzyme
Type: biochemical
Conditions: IC50 against mPGES-1, Mouse enzyme, recombinant microsomal enzyme; means ± SD, triplicate
Experimental: as §1, §2, §3, §4

Structure (SMILES)	IC50
O=C1NC(=O)C(=Cc2ccc(OCCCCC3CCCCC3)cc2)C(=O)N1 [Compound I-01]	7080 ± 627 nM
O=C1NC(=O)C(=Cc2ccc(OCCCCC3CCCCC3)c(O)c2)C(=O)N1 [Compound I-05]	2900 ± 293 nM
COc1cc(C=C2C(=O)NC(=O)NC2=O)ccc1OCCCCC1CCCCC1 [Compound I-06]	1460 ± 209 nM

Same assay, conditions: compound at a concentration of 10 μM; read-out: % inhibition of the compound against mPGES-1, Mouse enzyme

Structure (SMILES)	inhibition at 10 µM
Cc1cc(C=C2C(=O)NC(=O)NC2=O)ccc1OCCCCC1CCCCC1 [Compound I-04]	25%

Same assay, conditions: recombinant microsomal enzyme; means ± SD, triplicate; read-out: IC50 against mPGES-1, Mouse enzyme

Structure (SMILES)	IC50
O=C1NC(=O)C(=Cc2ccc(OCCCCC3CCCCC3)c(Cl)c2)C(=O)N1 [Compound I-02]	157 ± 31 nM
